Assay results published in patent publication US20150010630A1, “FUNCTIONALIZATION OF BIOMATERIALS TO CONTROL REGENERATION AND INFLAMMATION RESPONSES” (TRUSTEES OF TUFTS COLLEGE, priority 2011, published 2015).
Read-outs that look alike come from different tables or passages of the source.

Experiments:
THP1 macrophages [1] = test: RT-PCR gene expression (TNF-α, TGF-β, IL-10) of THP1 macrophages on SP1 particles
primary dendritic cells [2] = test: RT-PCR gene expression (IL-1β, IL-1RA, IL-8) of primary dendritic cells on SP0.5 particles; format: cell-based, human
THP1 macrophages [3] = tested on: THP1 macrophages
Procedure: The number of cells was determined, e.g., by counting the cells at the beginning of the experiment and by using the alamar blue method after the seeding. On the day the cells were seeded at the appropriate number, phorbo112-myristate 13-acetate (PMA) was added to the media at a final concentration of about 100 ng/ml to differentiate the THP-1 monocytes into THP-1 macrophages.

primary macrophages [4] = test: TNF-α release (ELISA) from primary macrophages on SP0.5 particles; format: cell-based, human; conditions: dexamethasone ~25 to ~1.5625 μg/ml both time points; simvastatin about 250 to about 31.25 μg/ml at 1 day; nicotine either time point
primary dendritic cells [5] = test: TNF-α release (ELISA) from primary dendritic cells on SP0.5 particles; format: cell-based, human; conditions: various concentrations, both time points
primary macrophages [6] = test: RT-PCR gene expression (TNF-α, IL-1RA, IL-10) of primary macrophages on SP0.5 particles; format: cell-based, human; conditions: 1 day
THP1 macrophages [7] = test: TNF-α release (ELISA) from THP1 macrophages seeded on SP1 particles, LPS plus drug; format: cell-based, human
Procedure: To assess inflammatory response, a large screen of cytokines and chemokines expressed and produced by THP1 differentiated cells and primary Mφs and DCs were analyzed. Their production and release into the media environment were evaluated using an ELISA sandwich technique. […] TNF-α cytokine release was selected in the experiments described herein because it is the common proinflammatory cytokine produced by Mφs as well as DCs. However, other inflammation-associated cytokines can also be measured.

THP-1 monocytes = test: M1/M2 macrophage marker expression in THP-1 monocytes cultured on silk films functionalized with macrophage-skewing agent; format: cell-based, human
[8] = Release of INF-γ from INF-γ embedded silk films (ELISA); format: physicochemical
Procedure: An ELISA was run to show the release rate of INF-γ from the silk films. The films were made from a silk fibroin solution of about 10 μg/m and 0.2 ml used per film (for a total loading of about 2 μg INF-γ). Within one hour a large amount of INF-γ is released but as a percentage of the total loading it is small and by 4 days more INF-γ is released showing that there is a continued or constant release of INF-γ. While the levels of INF-γ release are low, they are physiologically relevant.
FIG. 23 is a line graph showing the release rate of INF-γ from the silk films. The silk films were made from a silk solution at a concentration of about 10 μg/m and about 0.2 ml of the silk solution was used per film (with a loading of about 2 μg INF-γ). As shown in the table of FIG. 23, within one hour an amount of about […] INF-γ was released, which is about 0.02% of the total loading. […] While the levels of INF-γ release appeared to be low, the level is physiologically relevant.

[9] = about 10 μg/ml INF-γ in silk films

## C[C@@H]1C[C@H]2[C@@H]3CCC4=CC(=O)C=C[C@]4(C)[C@@]3(F)[C@@H](O)C[C@]2(C)[C@@]1(O)C(=O)CO [dexamethasone]
THP1 macrophages [1]; 1 day, dexamethasone about 12.5 μg/ml
  IL-10 fold change in expression (relative to positive control): above 1 fold

## CN1CCCC1c1cccnc1 (centres unmarked) [nicotine]
THP1 macrophages [1]; 1 day, dexamethasone vs media control, simvastatin vs positive control, nicotine vs controls
  IL-10 gene expression: unregulated
THP1 macrophages [1]; 3 days, dexamethasone all concentrations except ~25 μg/ml, nicotine compared to same concentrations at 1 day
  TGF-β gene expression: downregulated
THP1 macrophages [1]; 3 days, dexamethasone vs LPS control, nicotine vs negative control
  TNF-α gene expression: higher than the negative control
THP1 macrophages [1]; 3 days, nicotine compared to same concentrations at 1 day
  IL-10 gene expression: downregulated
Primary dendritic cells [2]; 1 day, dexamethasone various concentrations, simvastatin ~62.5 μg/ml, nicotine about 46.87 to about 187.5 μg/ml
  gene expression profile (anti-inflammatory or not): no anti-inflammatory profile
Primary dendritic cells [2]; 5 days
  gene expression profile (anti-inflammatory or not): no anti-inflammatory profile
THP1 macrophages [3]; dexamethasone ~100 and ~50 μg/ml, simvastatin 250 μg/ml, nicotine 3 mg/ml, both time points
  cytotoxicity (in words): cytotoxic
THP1 macrophages [3]; nicotine ~1.5 mg/ml, 3 days
  cytotoxicity (in words): cytotoxic
THP1 macrophages [3]; non-cytotoxic nicotine concentrations
  effect on cell number versus positive and negative controls: proliferative effect
Primary macrophages [4]
  TNF-α release compared to LPS control: no significant decrease
Primary dendritic cells [5]
  TNF-α release compared to LPS control: the same as observed with macrophages
Primary macrophages [6]; dexamethasone, simvastatin 125 to 31.25 μg/ml, nicotine 187.5 and 93.75 μg/ml
  TNF-α gene expression: downregulated
Primary macrophages [6]; dexamethasone, simvastatin, nicotine about 750 to about 275 μg/ml
  IL-10 gene expression: high
Primary macrophages [6]; simvastatin, nicotine about 750 to about 275 μg/ml
  IL-1RA gene expression: high
THP1 macrophages [7]; dexamethasone ~100 and ~50 μg/ml, simvastatin higher concentration, nicotine above 750 μg/ml, both time points
  TNF-α release compared to positive control (LPS), high concentrations: more TNF-α was released than the positive control

## CCC(C)(C)C(=O)O[C@H]1C[C@@H](C)C=C2C=C[C@H](C)[C@H](CC[C@@H]3C[C@@H](O)CC(=O)O3)[C@H]21 [simvastatin]
THP1 macrophages [7]; simvastatin ~31.5 μg/ml and less
  TNF-α release: about 0.07 pg/ml

## INF-γ: interferon-gamma loaded or embedded in silk films
THP-1 monocytes; [9]
  CCL-18 (M2 macrophage marker): upregulated
  CD206 (M2 macrophage marker) relative to control: strongly downregulated
THP-1 monocytes; about 10 μg/ml INF-γ loaded or embedded in silk films
  markers of M1 macrophage (CCL3 and CCR7): up-regulated

B1: INF-γ: interferon-gamma loaded or embedded in silk films (protein, UniProt P01579 24-161, looked up)
Interferon gamma: QDPYVKEAENLKKYFNAGHSDVADNGTLFLGILKNWKEESDRKIMQSQIVSFYFKLFKNFKDDQSIQKSVETIKEDMNVKFFNSNKKKRDDFEKLTNYSVTDLNVQRKAIHELIQVMAELSPAAKTGKRKRSQMLFRG
[8]; by day 4
  continued INF-γ release: More INF-γ was released
[8]; within one hour
  INF-γ released as share of the total loading: about 0.02%
[8]; within one hour, loading about 2 μg INF-γ per film
  amount of INF-γ released from silk film: about 400 μg/ml
